Measurements reported in patent publication US9840464B2, “IAP binding compounds” (TetraLogic Birinapant UK Ltd., priority 2004, dated 2017).
Where a name gives a salt, the structure may show the parent alone.

Biological target: XIAP-BIR3 (Homo sapiens, UniProt P98170)
Experiment: XIAP BIR3 fluorescence polarization binding assay (competition with AbuRPF-K(5-Fam)-NH2)
Details: 5 nM AbuRPF-K(5-Fam)-NH2, 40 nM XIAP-BIR3, pH 7.5; Kd calculated from measured IC50; read-out: KD Range
Method: Binding constants (Kd) were measured using fluorescence polarization as described by Zaneta Nikolovska-Coleska, Renxiao Wang, Xueliang Fang, Hongguang Pan, York Tomita, Peng Li, Peter P. Roller, Krzysztof Krajewski, Naoyuki Saito, Jeanne Stuckey and Shaomeng Wang, in “Development and Optimization of a Binding Assay for the XIAP BIR3 Domain Using Fluorescence Polarization”, Analytical Biochemistry 2004, 332, 261-273). Briefly, test IAP binding compounds at various concentrations for binding measurements were mixed with 5 nM fluorescently labeled peptide (AbuRPF-K(5-Fam)-NH2) and 40 nM of XIAP-BIR3 for 15 minutes at room temperature in 100 μL of 0.1M Potassium Phosphate buffer, pH 7.5 containing 100 μg/ml bovine γ-globulin. Following incubation, the polarization values (mP) were measured on a Victor^2V using a 485 nm excitation filter and a 520 nm emission filter. IC50 values were determined from the plot using nonlinear least-squares analysis using GraphPad Prism. The Kd values of competitive inhibitors were calculated using the equation described by Zaneta Nikolovska-Coleska et al. based upon the measured IC50 values, the Kd value of the probe and XIAP BIR3 complex, and the concentrations of the protein and probe in the competition assay. In various examples of IAP binding or IAP binding cargo molecules ranges for Kd values: Group A: Kd<0.1 μM; Group B: Kd=0.1-1 μM; Group C: Kd=1-10 μM; Group D: Kd>10 μM.

Chain of XIAP-BIR3 (P98170 241-356 limits assumed): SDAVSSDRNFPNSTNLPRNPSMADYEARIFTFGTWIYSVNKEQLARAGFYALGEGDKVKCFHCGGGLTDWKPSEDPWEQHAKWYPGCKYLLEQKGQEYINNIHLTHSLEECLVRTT

Compound	Kd
2-Amino-N-{2-methyl-1-[2-(5-pyridin-2-yl-benzofuran-3-ylmethyl)-pyrrolidine-1-carbonyl]-propyl}-propionamide [Entry 8-79]	1000 to 10000 nM
CC(N)C(=O)NC(C(=O)N1CCCC1CCCOc1ccccc1-c1ccccc1)C(C)C (single isomer, unassigned) [Entry 4-36]	> 10000 nM
CC(N)C(=O)NC(C(=O)N1CC(Oc2ccccc2)CC1Cc1coc2ccccc12)C(C)C (single isomer, unassigned) [Entry 5-53]	1000 to 10000 nM
CC(C)[C@H](NC(=O)[C@H](C)N)C(=O)N1C[C@@H](Oc2ccccc2)C[C@H]1COc1ccccc1 [Entry 2-1, 2S-Amino-N-[2-methyl-1S-(4S-phenoxy-2S-phenoxymethyl-pyrrolidine-1-carbonyl)-propyl]-propionamide hydrochloride]	100 to 1000 nM
CN[C@@H](C)C(=O)N[C@H](C(=O)N1C[C@@H](Oc2ccccc2)C[C@H]1COc1ccccc1)C(C)C [Entry 2-2]	100 to 1000 nM
CC(N)C(=O)NC(C(=O)N1CCCC1COc1ccccc1)C(C)C (stereo not drawn) [Entry 2-3]	100 to 1000 nM
CNC(C)C(=O)NC(C(=O)N1CCCC1COc1ccccc1-c1ccccc1)C(C)C (stereo not drawn) [Entry 2-5]	100 to 1000 nM
CC(N)C(=O)NC(C(=O)N1CCCC1COc1ccccc1-c1ccccc1)C(C)C (stereo not drawn) [Entry 2-6]	100 to 1000 nM
C#CCOC(C)[C@H](NC(=O)[C@H](C)N)C(=O)N1C[C@@H](Oc2ccccc2)C[C@H]1COc1ccccc1 (stereo partly drawn) [Entry 2-7]	< 100 nM
CC(C)[C@H](NC(=O)[C@H](C)N)C(=O)N1C[C@@H](Oc2ccccc2)C[C@H]1/C=C/COc1ccccc1 [Entry 3-8]	100 to 1000 nM
CC(C)[C@H](NC(=O)[C@H](C)N)C(=O)N1C[C@@H](Oc2ccccc2)C[C@H]1/C=C/COc1ccccc1Br [Entry 3-9]	100 to 1000 nM
CC(C)[C@H](NC(=O)[C@H](C)N)C(=O)N1C[C@@H](Oc2ccccc2)C[C@H]1/C=C/COc1cccc(Cl)c1Cl [Entry 3-10]	100 to 1000 nM
CC(C)[C@H](NC(=O)[C@H](C)N)C(=O)N1C[C@@H](Oc2ccccc2)C[C@H]1/C=C/COc1ccc(Cl)cc1Cl [Entry 3-11]	100 to 1000 nM
CCc1ccccc1OC/C=C/[C@@H]1C[C@H](Oc2ccccc2)CN1C(=O)[C@@H](NC(=O)[C@H](C)N)C(C)C [Entry 3-12, trans-2S-Amino-N-(1S-{2S-[3-(2-ethyl-phenoxy)-propenyl]-4S-phenoxy-pyrrolidine-1-carbonyl}-2-methyl-propyl)-propionamide]	100 to 1000 nM
CN[C@@H](C)C(=O)N[C@H](C(=O)N1C[C@@H](Oc2ccccc2)C[C@H]1/C=C/COc1cccc(Cl)c1Cl)C(C)C [Entry 3-13]	100 to 1000 nM
CC(C)[C@H](NC(=O)[C@H](C)N)C(=O)N1C[C@@H](Oc2ccccc2)C[C@H]1/C=C/COc1cccc(Br)c1 [Entry 3-14]	100 to 1000 nM
CC(C)Oc1ccccc1OC/C=C/[C@@H]1C[C@H](Oc2ccccc2)CN1C(=O)[C@@H](NC(=O)[C@H](C)N)C(C)C [Entry 3-15]	100 to 1000 nM
CC(C)[C@H](NC(=O)[C@H](C)NC(=O)OC(C)(C)C)C(=O)N1C[C@@H](Oc2ccccc2)C[C@H]1/C=C/COc1ccc2c(c1)CCCC2 [Entry 3-16]	> 10000 nM
COc1ccccc1OC/C=C/[C@@H]1C[C@H](Oc2ccccc2)CN1C(=O)[C@@H](NC(=O)[C@H](C)N)C(C)C [Entry 3-18]	100 to 1000 nM
COc1ccccc1OC/C=C/[C@@H]1C[C@H](Oc2ccccc2)CN1C(=O)[C@@H](NC(=O)CN)C(C)C [Entry 3-19]	> 10000 nM
CC(C)[C@H](NC(=O)[C@H](C)N)C(=O)N1C[C@@H](Oc2ccccc2)C[C@H]1/C=C/COc1ccccc1-c1ccccc1 [Entry 3-20]	100 to 1000 nM
Cc1cccc(C)c1OC/C=C/[C@@H]1C[C@H](Oc2ccccc2)CN1C(=O)[C@@H](NC(=O)[C@H](C)N)C(C)C [Entry 3-22]	< 100 nM
CCc1ccccc1OCCC[C@H]1C[C@H](Oc2ccccc2)CN1C(=O)[C@@H](NC(=O)[C@H](C)N)C(C)C [Entry 4-25, 2S-Amino-N-(1S-{2S-[3-(2-ethyl-phenoxy)-propyl]-4S-phenoxy-pyrrolidine-1-carbonyl}-2-methyl-propyl)-propionamide]	100 to 1000 nM

Compound	Kd
CCc1ccccc1OCCC[C@@H]1C[C@H](Oc2ccccc2)CN1C(=O)[C@@H](NC(=O)[C@H](C)NC)C(C)C [Entry 4-26]	100 to 1000 nM
CCc1ccccc1OCCCC1CC(Oc2ccccc2)CN1C(=O)C(NC(=O)CN)C(C)C (stereo not drawn) [Entry 4-27]	> 10000 nM
CCc1ccccc1OCCC[C@@H]1C[C@H](Oc2ccccc2)CN1C(=O)[C@@H](NC(=O)[C@H](C)NC)C(C)(C)C [Entry 4-28]	100 to 1000 nM
CC(C)Oc1ccccc1OCCC[C@@H]1C[C@H](Oc2ccccc2)CN1C(=O)[C@@H](NC(=O)[C@H](C)N)C(C)C [Entry 4-29]	100 to 1000 nM
CC(C)c1ccccc1OCCC[C@@H]1C[C@H](Oc2ccccc2)CN1C(=O)[C@@H](NC(=O)[C@H](C)N)C(C)C [Entry 4-30]	100 to 1000 nM
Cc1cccc(C)c1OCCC[C@@H]1C[C@H](Oc2ccccc2)CN1C(=O)[C@@H](NC(=O)[C@H](C)N)C(C)C [Entry 4-31]	100 to 1000 nM
CC(C)[C@H](NC(=O)[C@H](C)N)C(=O)N1CCC[C@H]1CCCOc1ccccc1-c1ccccc1 [Entry 4-32]	100 to 1000 nM
CCc1ccccc1OCCCC1CCCN1C(=O)C(NC(=O)C(C)N)C(C)C (stereo not drawn) [Entry 4-34]	1000 to 10000 nM
CC(C)Oc1ccccc1OCCCC1CCCN1C(=O)C(NC(=O)C(C)N)C(C)C (stereo not drawn) [Entry 4-35]	1000 to 10000 nM
CC(N)C(=O)NC(C(=O)N1CCCC1CCCOc1ccccc1)C(C)C (stereo not drawn) [Entry 4-37]	1000 to 10000 nM
Cc1cccc(C)c1OCCCC1CCCN1C(=O)C(NC(=O)C(C)N)C(C)C (stereo not drawn) [Entry 4-38]	> 10000 nM
CC(C)[C@H](NC(=O)[C@H](C)N)C(=O)N1C[C@@H](Oc2ccccc2)C[C@H]1Cc1coc2ccccc12 [Entry 5-39]	< 100 nM
C[C@H](N)C(=O)N[C@H](C(=O)N1C[C@@H](Oc2ccccc2)C[C@H]1Cc1coc2ccccc12)C(C)(C)C [Entry 5-40]	< 100 nM
CC(C)[C@H](NC(=O)[C@H](C)N)C(=O)N1CCC[C@H]1Cc1coc2ccccc12 [Entry 5-41, 2S-Amino-N-[1S-(2S-benzofuran-3-ylmethyl-pyrrolidine-1-carbonyl)-2-methyl-propyl]-propionamide]	< 100 nM
CN[C@@H](C)C(=O)N[C@H](C(=O)N1C[C@@H](Oc2ccccc2)C[C@H]1Cc1coc2ccccc12)C1CCCCC1 [Entry 5-43]	< 100 nM
CC[C@H](N)C(=O)N[C@H](C(=O)N1C[C@@H](Oc2ccccc2)C[C@H]1Cc1coc2ccccc12)C(C)C [Entry 5-44]	< 100 nM
CN[C@@H](C)C(=O)N[C@H](C(=O)N1C[C@@H](Oc2ccccc2)C[C@H]1Cc1coc2ccccc12)C(C)C [Entry 5-45]	< 100 nM
CC(C)C(NC(=O)CN)C(=O)N1CCCC1Cc1coc2ccccc12 (stereo not drawn) [Entry 5-46]	> 10000 nM
CC(N)C(=O)NC(C(=O)N1CCCC1Cc1coc2ccccc12)C1CCCCC1 (stereo not drawn) [Entry 5-47]	< 100 nM
CC(C)C(NC(=O)CN)C(=O)N1CC(Oc2ccccc2)CC1Cc1coc2ccccc12 (stereo not drawn) [Entry 5-52]	1000 to 10000 nM
CC[C@H](NC(=O)[C@H](C)N)C(=O)N1C[C@@H](Oc2ccccc2)C[C@H]1Cc1coc2ccccc12 [Entry 5-54]	< 100 nM
CC[C@H](NC(=O)[C@@H](N)CC)C(=O)N1C[C@@H](Oc2ccccc2)C[C@H]1Cc1coc2ccccc12 [Entry 5-55]	100 to 1000 nM
